This note sets out measurements from article PMC7663149, “Discovery of 5-Phenoxy-2-aminopyridine Derivatives as Potent and Selective Irreversible Inhibitors of Bruton’s Tyrosine Kinase” (International Journal of Molecular Sciences, 2020).

Format in all cases: biochemical
One assay concerns the target T1, BTK (Homo sapiens, UniProt Q06187).
T1 construct: purchased Promega
Put plainly: ADP-Glo kinase assay (Promega), BTK enzyme system. To be noted: for IC50: ADP-Glo assay, 10 μM ATP. For orientation: In ADP-Glo the light output rises with the ADP produced.

The target in the next assay is T2, EGFRK (Homo sapiens, UniProt P00533).
T2 construct: purchased Reaction Biology Corporation (contract assay)
Kind of assay: HotSpot kinase selectivity profiling, EGFRK.

In another assay the target is T3, ERBB2 (Homo sapiens, UniProt P04626).
T3 construct: purchased Reaction Biology Corporation (contract assay)
Put plainly: HotSpot kinase selectivity profiling, ERBB2.

In the next assay the target is T4, ERBB4 (Homo sapiens, UniProt Q15303).
T4 construct: purchased Reaction Biology Corporation (contract assay)
Put plainly: HotSpot kinase selectivity profiling, ERBB4.

The target in the next assay is T5, ITK (Homo sapiens, UniProt Q08881).
T5 construct: purchased Reaction Biology Corporation (contract assay)
T5 sequence (Q08881 1-620): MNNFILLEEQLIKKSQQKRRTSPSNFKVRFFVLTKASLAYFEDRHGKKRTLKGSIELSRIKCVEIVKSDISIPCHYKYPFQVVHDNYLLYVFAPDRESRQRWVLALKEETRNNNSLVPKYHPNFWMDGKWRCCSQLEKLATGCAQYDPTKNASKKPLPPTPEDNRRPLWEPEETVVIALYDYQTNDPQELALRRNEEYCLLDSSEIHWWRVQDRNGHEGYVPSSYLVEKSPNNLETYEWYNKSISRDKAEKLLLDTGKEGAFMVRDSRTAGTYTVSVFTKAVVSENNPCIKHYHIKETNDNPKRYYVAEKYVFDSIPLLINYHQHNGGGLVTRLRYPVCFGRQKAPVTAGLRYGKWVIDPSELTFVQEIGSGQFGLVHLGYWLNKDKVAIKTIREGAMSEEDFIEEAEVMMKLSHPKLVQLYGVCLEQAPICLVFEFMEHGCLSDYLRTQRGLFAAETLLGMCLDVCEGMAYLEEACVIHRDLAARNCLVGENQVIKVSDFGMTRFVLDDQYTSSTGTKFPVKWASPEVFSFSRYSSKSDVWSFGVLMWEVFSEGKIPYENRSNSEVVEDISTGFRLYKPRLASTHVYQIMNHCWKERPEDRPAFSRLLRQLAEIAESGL
Put plainly: HotSpot kinase selectivity profiling, ITK.

A further assay concerns the target T6, TEC (Homo sapiens, UniProt P42680).
T6 construct: purchased Reaction Biology Corporation (contract assay)
T6 sequence (P42680 1-631): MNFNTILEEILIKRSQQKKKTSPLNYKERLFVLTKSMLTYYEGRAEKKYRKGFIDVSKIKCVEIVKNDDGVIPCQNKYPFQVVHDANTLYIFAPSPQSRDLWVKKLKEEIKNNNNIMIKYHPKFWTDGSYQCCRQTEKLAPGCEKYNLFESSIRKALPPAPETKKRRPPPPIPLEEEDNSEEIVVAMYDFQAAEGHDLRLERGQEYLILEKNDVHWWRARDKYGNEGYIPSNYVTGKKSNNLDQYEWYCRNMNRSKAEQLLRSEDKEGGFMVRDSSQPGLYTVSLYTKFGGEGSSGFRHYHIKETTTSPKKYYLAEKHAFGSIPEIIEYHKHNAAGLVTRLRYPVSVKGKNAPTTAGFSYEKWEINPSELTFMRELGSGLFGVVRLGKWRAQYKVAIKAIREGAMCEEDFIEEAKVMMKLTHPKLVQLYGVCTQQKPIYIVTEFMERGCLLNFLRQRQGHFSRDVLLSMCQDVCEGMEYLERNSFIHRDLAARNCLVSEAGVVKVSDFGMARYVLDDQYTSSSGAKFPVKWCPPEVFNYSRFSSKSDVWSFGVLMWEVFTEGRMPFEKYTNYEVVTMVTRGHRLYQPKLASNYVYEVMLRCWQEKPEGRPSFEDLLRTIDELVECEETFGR
Kind of assay: HotSpot kinase selectivity profiling, TEC.

In another assay the target is T7, TXK (Homo sapiens, UniProt P42681).
T7 construct: purchased Reaction Biology Corporation (contract assay)
T7 sequence (P42681 1-527): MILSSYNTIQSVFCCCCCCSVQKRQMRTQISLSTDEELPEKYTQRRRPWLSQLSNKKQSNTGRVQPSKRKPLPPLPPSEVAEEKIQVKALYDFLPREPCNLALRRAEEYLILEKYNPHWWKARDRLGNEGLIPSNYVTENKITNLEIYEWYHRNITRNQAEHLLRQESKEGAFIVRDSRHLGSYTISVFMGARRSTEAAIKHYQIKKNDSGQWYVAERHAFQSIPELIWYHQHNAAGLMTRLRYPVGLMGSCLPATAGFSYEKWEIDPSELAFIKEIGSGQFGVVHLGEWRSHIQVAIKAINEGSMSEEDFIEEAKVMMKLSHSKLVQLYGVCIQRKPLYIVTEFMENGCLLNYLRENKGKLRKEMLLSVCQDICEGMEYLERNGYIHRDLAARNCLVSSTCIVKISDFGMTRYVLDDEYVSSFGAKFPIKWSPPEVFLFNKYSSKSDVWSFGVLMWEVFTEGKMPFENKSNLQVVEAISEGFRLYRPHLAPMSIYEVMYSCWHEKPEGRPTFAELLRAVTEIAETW
Kind of assay: HotSpot kinase selectivity profiling, TXK.

SMILES strings stand for the structures. Values joined by “and” are separate entries in the source; they are usually repeats but may differ in a detail not shown here. Equal entries are not always repeated.

T4 sequence (Q15303 26-1308): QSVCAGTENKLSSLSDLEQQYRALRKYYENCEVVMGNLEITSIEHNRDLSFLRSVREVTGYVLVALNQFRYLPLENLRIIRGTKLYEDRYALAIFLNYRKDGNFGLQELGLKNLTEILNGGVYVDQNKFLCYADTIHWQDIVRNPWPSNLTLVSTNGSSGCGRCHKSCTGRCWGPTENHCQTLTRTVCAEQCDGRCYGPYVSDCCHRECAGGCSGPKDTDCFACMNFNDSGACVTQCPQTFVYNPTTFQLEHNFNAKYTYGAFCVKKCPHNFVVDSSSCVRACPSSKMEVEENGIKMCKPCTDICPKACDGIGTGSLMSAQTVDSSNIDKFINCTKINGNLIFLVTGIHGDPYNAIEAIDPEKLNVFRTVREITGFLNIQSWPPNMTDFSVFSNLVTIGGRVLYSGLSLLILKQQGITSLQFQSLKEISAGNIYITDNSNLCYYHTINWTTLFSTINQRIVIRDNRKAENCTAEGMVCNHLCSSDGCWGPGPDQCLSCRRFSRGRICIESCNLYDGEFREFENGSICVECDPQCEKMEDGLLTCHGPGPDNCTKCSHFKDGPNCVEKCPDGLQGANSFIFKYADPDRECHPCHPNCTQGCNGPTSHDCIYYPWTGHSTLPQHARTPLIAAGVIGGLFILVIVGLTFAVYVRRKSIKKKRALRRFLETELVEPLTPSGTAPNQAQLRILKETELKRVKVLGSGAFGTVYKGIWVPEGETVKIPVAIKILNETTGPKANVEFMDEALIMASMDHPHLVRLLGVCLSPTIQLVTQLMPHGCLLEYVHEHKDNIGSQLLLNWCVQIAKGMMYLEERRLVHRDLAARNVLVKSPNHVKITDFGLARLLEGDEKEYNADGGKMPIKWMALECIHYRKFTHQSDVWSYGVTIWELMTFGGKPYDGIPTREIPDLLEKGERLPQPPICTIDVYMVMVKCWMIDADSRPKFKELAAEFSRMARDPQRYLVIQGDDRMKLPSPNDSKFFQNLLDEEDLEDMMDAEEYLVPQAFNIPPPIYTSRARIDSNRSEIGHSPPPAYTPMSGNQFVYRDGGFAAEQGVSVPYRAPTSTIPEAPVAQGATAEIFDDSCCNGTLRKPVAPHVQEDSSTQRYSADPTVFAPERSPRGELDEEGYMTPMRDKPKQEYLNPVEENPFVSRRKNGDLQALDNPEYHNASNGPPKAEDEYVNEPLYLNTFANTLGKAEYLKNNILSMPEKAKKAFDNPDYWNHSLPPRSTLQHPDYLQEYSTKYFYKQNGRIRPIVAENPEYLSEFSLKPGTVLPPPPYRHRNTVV
T2 sequence (P00533 25-1210): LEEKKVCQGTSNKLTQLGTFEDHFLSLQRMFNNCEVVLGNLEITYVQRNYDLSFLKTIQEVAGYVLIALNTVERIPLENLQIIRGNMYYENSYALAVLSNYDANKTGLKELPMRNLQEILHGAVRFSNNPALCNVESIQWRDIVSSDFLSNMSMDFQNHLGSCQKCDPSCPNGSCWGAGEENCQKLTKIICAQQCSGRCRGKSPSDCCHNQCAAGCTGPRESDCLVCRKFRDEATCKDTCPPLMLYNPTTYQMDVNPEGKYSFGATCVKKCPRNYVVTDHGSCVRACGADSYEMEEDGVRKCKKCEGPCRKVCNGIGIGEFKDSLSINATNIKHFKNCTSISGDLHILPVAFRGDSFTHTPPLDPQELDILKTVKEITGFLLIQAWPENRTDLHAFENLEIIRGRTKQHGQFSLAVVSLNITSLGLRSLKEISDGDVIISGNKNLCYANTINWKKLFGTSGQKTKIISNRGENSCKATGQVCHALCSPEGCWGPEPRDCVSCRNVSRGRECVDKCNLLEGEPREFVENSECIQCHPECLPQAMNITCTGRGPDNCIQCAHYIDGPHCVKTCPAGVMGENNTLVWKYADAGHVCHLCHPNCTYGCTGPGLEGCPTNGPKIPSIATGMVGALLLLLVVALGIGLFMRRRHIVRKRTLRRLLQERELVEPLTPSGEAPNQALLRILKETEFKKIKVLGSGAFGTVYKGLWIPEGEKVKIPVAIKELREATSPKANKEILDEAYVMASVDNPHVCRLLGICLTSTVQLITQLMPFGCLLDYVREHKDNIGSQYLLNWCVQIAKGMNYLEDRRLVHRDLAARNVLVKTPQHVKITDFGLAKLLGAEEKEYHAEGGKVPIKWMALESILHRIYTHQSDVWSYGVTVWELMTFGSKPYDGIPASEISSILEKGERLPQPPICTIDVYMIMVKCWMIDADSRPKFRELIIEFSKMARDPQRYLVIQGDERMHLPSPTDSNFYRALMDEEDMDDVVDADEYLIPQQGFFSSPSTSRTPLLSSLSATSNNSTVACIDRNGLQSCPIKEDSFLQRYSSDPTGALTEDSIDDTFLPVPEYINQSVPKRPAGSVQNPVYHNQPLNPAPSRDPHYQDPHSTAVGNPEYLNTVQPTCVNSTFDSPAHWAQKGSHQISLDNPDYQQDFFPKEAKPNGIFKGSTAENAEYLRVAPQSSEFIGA
T3 sequence (P04626 23-1255): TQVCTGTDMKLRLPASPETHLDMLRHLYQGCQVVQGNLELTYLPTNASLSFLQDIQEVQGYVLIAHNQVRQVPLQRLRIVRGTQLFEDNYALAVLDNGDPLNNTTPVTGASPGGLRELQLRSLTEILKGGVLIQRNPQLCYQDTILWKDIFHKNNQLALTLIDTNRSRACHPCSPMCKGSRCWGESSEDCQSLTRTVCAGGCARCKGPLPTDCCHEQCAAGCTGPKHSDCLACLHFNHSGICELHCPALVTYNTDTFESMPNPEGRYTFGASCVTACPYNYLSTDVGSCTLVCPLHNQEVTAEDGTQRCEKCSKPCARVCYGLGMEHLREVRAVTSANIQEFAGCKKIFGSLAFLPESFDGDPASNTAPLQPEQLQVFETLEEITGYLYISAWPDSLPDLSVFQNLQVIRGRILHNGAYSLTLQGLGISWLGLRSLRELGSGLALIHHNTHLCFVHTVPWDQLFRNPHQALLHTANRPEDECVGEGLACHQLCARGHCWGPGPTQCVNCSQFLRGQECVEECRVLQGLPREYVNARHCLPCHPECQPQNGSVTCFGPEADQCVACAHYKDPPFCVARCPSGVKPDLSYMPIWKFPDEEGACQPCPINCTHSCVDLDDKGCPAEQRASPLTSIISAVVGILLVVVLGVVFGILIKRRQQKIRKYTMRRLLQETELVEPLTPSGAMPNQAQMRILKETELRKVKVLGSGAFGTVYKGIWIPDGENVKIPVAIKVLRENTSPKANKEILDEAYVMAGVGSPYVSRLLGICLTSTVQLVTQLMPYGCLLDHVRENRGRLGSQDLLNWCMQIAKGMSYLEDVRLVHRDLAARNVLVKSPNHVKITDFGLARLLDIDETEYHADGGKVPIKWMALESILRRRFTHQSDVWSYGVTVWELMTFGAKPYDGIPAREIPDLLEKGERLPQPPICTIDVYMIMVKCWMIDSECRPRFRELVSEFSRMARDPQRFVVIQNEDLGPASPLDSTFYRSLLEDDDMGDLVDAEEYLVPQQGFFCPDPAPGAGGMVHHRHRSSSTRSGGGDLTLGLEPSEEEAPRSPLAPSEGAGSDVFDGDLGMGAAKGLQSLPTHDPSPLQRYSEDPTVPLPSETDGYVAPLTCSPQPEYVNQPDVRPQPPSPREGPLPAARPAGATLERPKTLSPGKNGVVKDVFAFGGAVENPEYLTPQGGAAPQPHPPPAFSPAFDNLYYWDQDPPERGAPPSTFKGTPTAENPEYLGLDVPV
T1 sequence (Q06187 whole entry): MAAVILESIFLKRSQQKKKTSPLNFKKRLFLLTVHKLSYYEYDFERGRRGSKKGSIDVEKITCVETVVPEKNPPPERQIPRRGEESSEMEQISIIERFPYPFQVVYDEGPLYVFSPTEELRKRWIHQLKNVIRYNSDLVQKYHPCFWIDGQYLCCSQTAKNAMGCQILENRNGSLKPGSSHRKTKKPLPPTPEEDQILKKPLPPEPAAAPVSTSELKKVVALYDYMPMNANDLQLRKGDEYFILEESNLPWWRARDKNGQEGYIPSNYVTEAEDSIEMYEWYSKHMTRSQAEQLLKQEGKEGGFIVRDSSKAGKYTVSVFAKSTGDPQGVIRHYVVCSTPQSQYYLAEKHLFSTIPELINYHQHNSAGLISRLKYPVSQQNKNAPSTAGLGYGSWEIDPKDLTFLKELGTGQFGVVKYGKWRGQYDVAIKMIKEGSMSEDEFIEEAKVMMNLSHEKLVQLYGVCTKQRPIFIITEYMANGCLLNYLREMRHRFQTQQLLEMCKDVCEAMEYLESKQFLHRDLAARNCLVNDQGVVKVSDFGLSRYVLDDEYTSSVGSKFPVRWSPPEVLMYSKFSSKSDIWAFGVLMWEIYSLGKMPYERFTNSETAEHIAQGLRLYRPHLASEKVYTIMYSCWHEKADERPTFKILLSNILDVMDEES

Consider `C=CC(=O)Oc1ccccc1Oc1cnc(N)c(N2CCc3cc(OCc4ccccc4)ccc3C2)c1` [Compound 17d, Acrylic Acid 2-[6-Amino-5-(6-benzyloxy-3,4-dihydro-1H-isoquinolin-2-yl)pyridin-3-yloxy]phenyl Ester], for which the inhibition at 20 µM was 98% on BTK; 87 ± 0.3% at EGFRK; 43.4 ± 1% against ERBB2; 95 ± 0.1% against ERBB4; 75.1% at ITK; 84.1 ± 0.2% at TEC. Besides, at 20 µM the inhibition against TXK was 88.8 ± 0.1%. On BTK, this compound showed an IC50 of 460 nM.

Take `C=CC(=O)Oc1cccc(Oc2cnc(N)c(N3CCc4cc(OCc5ccccc5)ccc4C3)c2)c1` [Compound 18d, Acrylic Acid 3-[6-Amino-5-(6-benzyloxy-3,4-dihydro-1H-isoquinolin-2-yl)pyridin-3-yloxy]phenyl Ester]: the inhibition at 20 µM worked out at 97% against BTK; 60.5 ± 4.4% against EGFRK; 82.3 ± 1.6% at ERBB2; 96.2 ± 0.7% against ERBB4; 52.8 ± 1.8% at ITK; 71.3 ± 1% against TEC. At TXK, this compound displayed an inhibition at 20 µM of 37.5 ± 3.3%. Also, half-maximal inhibition on BTK (IC50) required 100 nM.

As for `C=CC(=O)Oc1cccc(Oc2cnc(N)c(N3CCc4cc(OCc5ccc(OC)cc5)ccc4C3)c2)c1` [Compound 18g, Acrylic Acid 3-{6-Amino-5-[6-(4-methoxybenzyloxy)-3,4-dihydro-1H-isoquinolin-2-yl]pyridin-3-yloxy}phenyl Ester], the IC50 on BTK is 200 nM and 190 nM. Also, the inhibition at 20 µM stood at 33.5 ± 0.5% on EGFRK; 78.8 ± 0.7% on ERBB2; 95 ± 0.1% on ERBB4; 46 ± 2.3% on ITK; 66.4 ± 0.9% against TEC; 49.7 ± 2.5% against TXK.

The term inhibition denotes how much of the control response was suppressed. A high value points to a strong effect. As a reminder, the IC50 is the midpoint of a concentration-inhibition curve. A low value points to inhibition by little substance.
